According to ChEMBL document CHEMBL5131514, “Structure and Mechanism-Guided Design of Dual Serine/Metallo-Carbapenemase Inhibitors” (J Med Chem, 2022):
Values belong to the molecule of their own block, whether it stands above or below them.

Key:
[1] = Inhibition of recombinant bacterial beta-lactamase TEM-1 SBL (24 to 286 residues) expressed in Escherichia coli Transetta (DE3) using FC-1 as substrate preincubated for 4 hrs followed by substrate addition measured every 60 secs by fluorescence based assay; set-up: species or system Bacteria
[2] = Inhibition of recombinant bacterial beta-lactamase NDM-1 MBL (1 to 270 residues) expressed in Escherichia coli Transetta (DE3) using FC-1 as substrate preincubated for 10 mins followed by substrate addition measured every 60 secs by fluorescence based assay; set-up: species or system Bacteria
[3] = Inhibition of recombinant bacterial beta-lactamase VIM-2 MBL (27 to 266 residues) expressed in Escherichia coli Transetta (DE3) using FC-1 as substrate preincubated for 10 mins followed by substrate addition measured every 60 secs by fluorescence based assay; set-up: species or system Bacteria
Bacteria [4] = assay: Inhibition of bacterial beta-lactamase KPC-2 at 200 uM using CENTA substrate by colorimetric assay relative to control
Bacteria [5] = assay: Inhibition of bacterial beta-lactamase CTX-M-15 at 200 uM CENTA substrate by colorimetric assay relative to control
Bacteria [6] = assay: Inhibition of recombinant bacterial beta-lactamase VIM-2 (26 to 266 residues) expressed in Escherichia coli Lemo21(DE3) at 200 uM using CENTA substrate by colorimetric assay relative to control
Bacteria [7] = assay: Inhibition of bacterial beta-lactamase AmpC at 200 uM using CENTA substrate by colorimetric assay relative to control
Bacteria [8] = assay: Inhibition of recombinant bacterial beta-lactamase […] (28 to 270 residues) at 200 uM using CENTA substrate by colorimetric assay relative to control
[9] = Binding affinity to Pseudomonas aeruginosa beta-lactamase IMP-1 expressed in Escherichia coli Lemo21(DE3) assessed as inhibition constant using nitrocefin as substrate by spectrophotometric assay
[10] = Binding affinity to recombinant full-length bacterial beta-lactamase KPC-2 assessed as inhibition constant using nitrocefin as substrate by spectrophotometric assay; set-up: species or system Bacteria
[11] = Binding affinity to bacterial beta-lactamase VIM-1 expressed in Escherichia coli BL21 (DE3) assessed as inhibition constant using nitrocefin as substrate by spectrophotometric assay; set-up: species or system Bacteria
[12] = Inhibition of bacterial beta-lactamase P99 using nitrocefin as substrate incubated for 10 mins and measured every 10 seconds for 10 mins; set-up: species or system Bacteria
[13] = Inhibition of bacterial beta-lactamase KPC-2 using nitrocefin as substrate incubated for 10 mins and measured every 10 seconds for 10 mins; set-up: species or system Bacteria
[14] = Inhibition of bacterial beta-lactamase OXA-48 using nitrocefin as substrate incubated for 10 mins and measured every 10 seconds for 10 mins; set-up: species or system Bacteria
[15] = Inhibition of bacterial beta-lactamase SHV-12 using nitrocefin as substrate incubated for 10 mins and measured every 10 seconds for 10 mins; set-up: species or system Bacteria
[16] = Inhibition of bacterial beta-lactamase CTX-M-15 using nitrocefin as substrate incubated for 10 mins and measured every 10 seconds for 10 mins; set-up: species or system Bacteria
[17] = Inhibition of bacterial beta-lactamase VIM-1 using nitrocefin as substrate incubated for 10 mins followed by substrate addition measured every 10 seconds for 10 mins; set-up: species or system Bacteria
[18] = Inhibition of bacterial beta-lactamase IMP-1 using imipenem as substrate incubated for 10 mins followed by substrate addition measured every 30 seconds for 1 hr; set-up: species or system Bacteria
[19] = Inhibition of bacterial beta-lactamase TEM-10 using nitrocefin as substrate incubated for 10 mins and measured every 10 seconds for 10 mins; set-up: species or system Bacteria
[20] = Inhibition of bacterial beta-lactamase KPC-2 expressed in Escherichia coli BL21 (DE3) assessed as inhibition constant using nitrocefin as substrate by microplate reader analysis; set-up: species or system Bacteria
[21] = Inhibition of bacterial beta-lactamase NDM-1 (42 to 270 residues) expressed in Escherichia coli BL21 (DE3) assessed as inhibition constant using nitrocefin as substrate by microplate reader analysis; set-up: species or system Bacteria
[22] = Inhibition of recombinant bacterial beta-lactamase […] (28 to 270 residues) assessed as inhibition constant using imipenem as substrate by spectrophotometric assay; set-up: species or system Bacteria
[23] = Inhibition of bacterial beta-lactamase CTX-M-15 assessed as inhibition constant using cephalothin as substrate by spectrophotometric assay; set-up: species or system Bacteria

SMILES: O=C(Nc1nnn[nH]1)c1cc(-c2ccccc2)nn1-c1ccccc1
Ki [20]: 44 µM
Ki [21]: 62 µM

SMILES: O=C(Nc1nnn[nH]1)C(Nc1ccccc1)c1ccccc1 (centres undefined)
Ki [20]: 479 µM
Ki [21]: 477 µM

SMILES: O=C(Nc1nnn[nH]1)c1cc(-c2ccccc2)n(-c2ccccc2)n1
Ki [20]: 239 µM
Ki [21]: 56 µM

SMILES: S=c1[nH]ncn1NCc1ccc2c(c1)OCO2
Ki [9]: 125 µM
Ki [10]: 138 µM
Ki [11]: 120 µM

SMILES: O=C(Nc1nnn[nH]1)C(c1ccccc1)[S+]([O-])c1ccccc1 (centres undefined)
Ki [20]: 1570 µM
Ki [21]: 204 µM

SMILES: CCN(CC)c1ccc(CNn2cn[nH]c2=S)cc1
Ki [9]: 173 µM
Ki [10]: 263 µM
Ki [11]: 224 µM

SMILES: Sc1nnc(-c2ccco2)n1C1CC1
inhibition (Bacteria [4]): 46%
inhibition (Bacteria [5]): 49%
inhibition (Bacteria [6]): 81%
inhibition (Bacteria [7]): < 20%
inhibition (Bacteria [8]): 62%

SMILES: CCn1c(S)nnc1-c1nn(C)c(C)c1Cl
inhibition (Bacteria [4]): < 20%
inhibition (Bacteria [5]): < 20%
inhibition (Bacteria [6]): 86%
inhibition (Bacteria [7]): 37%
inhibition (Bacteria [8]): 70%

The next lines start with results.

IC50 [1]: 68.4 µM
IC50 [2]: 32 µM
IC50 [3]: 11.1 µM
SMILES: O=P(O)(O)C(c1ccccc1-c1ccccn1)P(=O)(O)O

inhibition (Bacteria [4]): < 20%
inhibition (Bacteria [5]): 33%
inhibition (Bacteria [6]): 87%
inhibition (Bacteria [7]): < 20%
inhibition (Bacteria [8]): 54%
SMILES: Sc1nnc(-c2cccnc2)n1CC1CCCO1 (centres undefined)

Ki [10]: 158 µM
SMILES: Sc1nncn1/N=C/c1ccc(Br)cc1
Ki [9]: 285 µM
Ki [11]: 58 µM

IC50 [12]: 22 nM
IC50 [13]: 2.9 nM
IC50 [14]: 1.1 nM
IC50 [15]: 1.9 nM
IC50 [16]: 1.2 nM
IC50 [17]: 14 nM
IC50 [18]: 610 nM
IC50 [19]: 2.2 nM
SMILES: O=C(O)c1c(F)ccc2c1OB(O)[C@@H]1C[C@H]21 [XERUBORBACTAM]

inhibition (Bacteria [4]): 41%
inhibition (Bacteria [5]): 32%
inhibition (Bacteria [6]): 33%
inhibition (Bacteria [7]): 50%
Ki [22]: 32 µM
inhibition (Bacteria [8]): 71%
Ki [23]: 50 µM
SMILES: S=C(N/N=C/c1ccccc1)N1CCOCC1

Ki [10]: 139 µM
SMILES: S=c1[nH]ncn1/N=C/c1c[nH]c2ccccc12
Ki [9]: 104 µM
Ki [11]: 95 µM

IC50 [1]: 1.73 µM
IC50 [2]: 17.1 µM
IC50 [3]: 3.78 µM
SMILES: O=P(O)(O)C(c1ccc2ccccc2c1-c1ccccn1)P(=O)(O)O

IC50 [1]: 11.5 µM
IC50 [2]: 15 µM
IC50 [3]: 5.58 µM
SMILES: O=P(O)(O)C(c1cc2ccccc2n1-c1ncccn1)P(=O)(O)O

inhibition (Bacteria [4]): 66%
inhibition (Bacteria [5]): 55%
inhibition (Bacteria [6]): 45%
inhibition (Bacteria [7]): 32%
inhibition (Bacteria [8]): 79%
SMILES: O=C(NC(=S)NNC(=O)c1cccs1)c1ccc(Br)o1
